pIC50: −log10 of the molar value.
System: 817829-284-R-J1-PDC complex spheroid viability
Test: Anticancer human tumor 817829-284-R-J1-PDC patient-derived colon adenocarcinoma cell line growth inhibition [POLQ]
Settings: for pIC50: curve of first compound; for viability, T/C: stronger effect = lower value
Protocol: Multicellular complex tumor spheroid response to Polymerase (POL) inhibitors (novobiocin, ART-558, RP6685) in combination with a variety of drugs and investigational agents in selected tumor cell lines
The POL inhibitors (novobiocin, ART-558, and RP6685) were evaluated both individually and in combination with standard of care and investigational anticancer small molecules within a complex spheroid model of solid tumors. . Complex spheroids include a stromal component modeled by human endothelial cells (HUVEC) and fibroblasts modeled by human mesenchymal stem cells (MSCs). The concentration ranges selected for each drug and investigational agent were based upon clinically achievable concentrations if the clinical Cmax of the agent was known.
Compounds. The drugs and investigational agents: novobiocin (NSC847541), ART-558 (NSC835418), RP-6685 (NSC848927), peposertib (NSC802822), ceralasertib (NSC780249), elimusertib (NSC800525), camonsertib (NSC841442), AZD-1390 (NSC803789), olaparib (NSC753686), talazoparib (NSC767125), rucaparib (NSC756644), sotorasib (NSC818433), MRTX-1133 (NSC836407), SN-38 (NSC673596), topotecan (NSC609699), epotoside (NSC141540), doxorubicin (NSC123127), gemcitabine (NSC613327), 5-fluorouracil (NSC19893), paclitaxel (NSC125973), vemurafenib (NSC761431), MSA-2 (NSC828583), SN-011 (NSC837082), adavosertib (NSC754352), prexasertib (NSC758257), carboplatin (NSC241240) and oxaliplatin (NSC266046), were obtained from the National Cancer Institute (NCI) Developmental Therapeutics Program Chemical Repository (21). The FDA-approved anticancer drug set is available from the Developmental Therapeutics Program at https://dtp.cancer.gov/organization/dscb/obtaining/. […] The stock solutions were prepared in dimethyl sulfoxide (DMSO, Sigma-Aldrich, St. Louis, MO, cat. D2650), except for the platinum compounds which were prepared in saline (Quality Biological, Gaithersburg, MD, cat. 114-055-101), at 800-fold the tested concentration and stored at -70 degrees C prior to their use. All drugs and investigational agents were tested over a range starting from a high concentration at or near the clinical Cmax and decreasing in half-log increments. If the clinical Cmax for an agent had not been determined, the highest concentration tested was 10 microM, except for SN-38, which was tested at a high concentration of 1 microM.
Cell Culture. All cells were maintained in an incubator at 37 degrees C and 5% CO2 with 95% humidity. The PDC lines were cultured according to standard operating procedures established by the NCI PDMR (https://pdmr.cancer.gov). Table 3 of the manuscript, lists the cell lines along with the number of the three cell types plated to form the mct-spheroids and media for tumor cell growth. After thawing, all PDC lines, except 997537-175-T-J1-PDC and 415267-285-R-J2-PDC, were cultured in Matrigel-coated flasks prepared with a working solution of 1X Ham's F-12 nutrient mix, without supplementation (Thermo Fisher Scientific, cat. 11765054), 100 U/mL penicillin-streptomycin (Thermo Fisher Scientific, cat. 15140122), and 2.5% Matrigel (Corning Inc., Corning, NY, cat. 354248) for the first three passages. The two PDC lines 997537-175-T-J1-PDC and 415267-285-R-J2-PDC were cultured on uncoated flasks. The 857933-349-R-J2-PDC line was cultured in 6C/Colon 1B media containing advanced DMEM/F-12 (Thermo Fisher Scientific, cat. 12634028), 10 mM HEPES (Thermo Fisher Scientific, cat. 15630080), 1X GlutaMAX supplement (Thermo Fisher Scientific, cat. 35050061), 0.1 mg/mL primocin (InvivoGen, San Diego, CA, cat. ant-pm-2), 10% defined fetal bovine serum, heat inactivated (HyClone Laboratories Inc., Logan, UT, cat. SH30070.03HI), 50% L-WRN conditioned media (ATCC, cat. CRL-3276), 1.25 mM N-Acetyl-L-cysteine (Sigma-Aldrich, cat. A9165), 10 mM nicotinamide (Sigma-Aldrich, cat. N0636), 1X B-27 supplement (Thermo Fisher Scientific, cat. 17504044), 1X N-2 supplement (Thermo Fisher Scientific, cat. […]

[1] = second compound 0.0316 µM, first compound 0.0316 µM
[2] = second compound 0.0316 µM, first compound 0.1 µM
[3] = second compound 0.0316 µM, first compound 0.316 µM
[4] = second compound 0.0316 µM, first compound 1 µM
[5] = second compound 0.0316 µM, first compound 3.16 µM
[6] = second compound 0.0316 µM, first compound 10 µM
[7] = second compound 0.1 µM, first compound 0.0316 µM
[8] = second compound 0.1 µM, first compound 0.1 µM
[9] = second compound 0.1 µM, first compound 0.316 µM
[10] = second compound 0.1 µM, first compound 1 µM
[11] = second compound 0.1 µM, first compound 3.16 µM
[12] = second compound 0.1 µM, first compound 10 µM
[13] = second compound 0.316 µM, first compound 0.0316 µM
[14] = second compound 0.316 µM, first compound 0.1 µM
[15] = second compound 0.316 µM, first compound 0.316 µM
[16] = second compound 0.316 µM, first compound 1 µM
[17] = second compound 0.316 µM, first compound 3.16 µM
[18] = second compound 0.316 µM, first compound 10 µM
[19] = second compound 1 µM, first compound 0.0316 µM
[20] = second compound 1 µM, first compound 0.1 µM
[21] = second compound 1 µM, first compound 0.316 µM
[22] = second compound 1 µM, first compound 1 µM
[23] = second compound 1 µM, first compound 3.16 µM
[24] = second compound 1 µM, first compound 10 µM
[25] = second compound 3.16 µM, first compound 0.0316 µM
[26] = second compound 3.16 µM, first compound 0.1 µM
[27] = second compound 3.16 µM, first compound 0.316 µM
[28] = second compound 3.16 µM, first compound 1 µM
[29] = second compound 3.16 µM, first compound 3.16 µM
[30] = second compound 3.16 µM, first compound 10 µM
[31] = second compound 10 µM, first compound 0.0316 µM
[32] = second compound 10 µM, first compound 0.1 µM
[33] = second compound 10 µM, first compound 0.316 µM
[34] = second compound 10 µM, first compound 1 µM
[35] = second compound 10 µM, first compound 3.16 µM
[36] = second compound 10 µM, first compound 10 µM
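Also: spheroids exposed to compounds for 7 days.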
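For viability, T/C in this document: 100% = DMSO vehicle-treated spheroids.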

Q: How did the pIC50 (second compound 0.0316 µM) turn out when `C=CC(=O)N1CCN(c2nc(=O)n(-c3c(C)ccnc3C(C)C)c3nc(-c4c(O)cccc4F)c(F)cc23)C(C)C1` (centres undefined) + Cc1cccc(N(C)C(=O)C2C(O)CCN2c2nc(C)cc(C(F)(F)F)c2C#N)c1 was run?
A: 5.03

Q: And the pIC50 (second compound 0.1 µM)?
A: 5.02

Q: What about the pIC50 (second compound 0.316 µM) of the same compound?
A: 5.04

Q: What about the pIC50 (second compound 1 µM) of the same compound?
A: 5.11

Q: What about the pIC50 (second compound 3.16 µM) of the same compound?
A: 5.14

Q: What about the pIC50 (second compound 10 µM) of the same compound?
A: < 5.00

Q: What about the viability, T/C [1] of the same compound?
A: 94.4%

Q: And the viability, T/C [2]?
A: 140%

Q: And the viability, T/C [3]?
A: 112%

Q: What about the viability, T/C [4] of the same compound?
A: 105%

Q: And the viability, T/C [5]?
A: 82.7%

Q: And the viability, T/C [6]?
A: 48%

Q: And the viability, T/C [7]?
A: 91.1%

Q: What about the viability, T/C [8] of the same compound?
A: 109%

Q: What about the viability, T/C [9] of the same compound?
A: 104%

Q: And the viability, T/C [10]?
A: 110%

Q: And the viability, T/C [11]?
A: 86.3%

Q: What about the viability, T/C [12] of the same compound?
A: 48.2%

Q: What about the viability, T/C [13] of the same compound?
A: 92.2%

Q: What about the viability, T/C [14] of the same compound?
A: 109%

Q: What about the viability, T/C [15] of the same compound?
A: 108%

Q: And the viability, T/C [16]?
A: 83.5%

Q: And the viability, T/C [17]?
A: 83.1%

Q: What about the viability, T/C [18] of the same compound?
A: 46.9%

Q: And the viability, T/C [19]?
A: 92.9%

Q: What about the viability, T/C [20] of the same compound?
A: 91.2%

Q: And the viability, T/C [21]?
A: 112%

Q: And the viability, T/C [22]?
A: 99%

Q: And the viability, T/C [23]?
A: 86.4%

Q: And the viability, T/C [24]?
A: 39.9%

Q: What about the viability, T/C [25] of the same compound?
A: 113%

Q: And the viability, T/C [26]?
A: 125%

Q: And the viability, T/C [27]?
A: 87.8%

Q: What about the viability, T/C [28] of the same compound?
A: 89.3%

Q: What about the viability, T/C [29] of the same compound?
A: 76.3%

Q: What about the viability, T/C [30] of the same compound?
A: 39.9%

Q: What about the viability, T/C [31] of the same compound?
A: 89.4%

Q: What about the viability, T/C [32] of the same compound?
A: 104%

Q: And the viability, T/C [33]?
A: 84%

Q: And the viability, T/C [34]?
A: 113%

Q: And the viability, T/C [35]?
A: 66.9%

Q: And the viability, T/C [36]?
A: 54.9%

Q: How did the pIC50 (second compound 0.0316 µM) turn out when `COc1cc2cc(C(=O)CCC(=O)O)sc2cc1OC` + COC1C(OC(N)=O)C(O)C(Oc2ccc3c(O)c(NC(=O)c4ccc(O)c(CC=C(C)C)c4)c(=O)oc3c2C)OC1(C)C was run?
A: < 5.00

Q: What about the pIC50 (second compound 0.1 µM) of the same compound?
A: < 5.00

Q: And the pIC50 (second compound 0.316 µM)?
A: < 5.00

Q: And the pIC50 (second compound 1 µM)?
A: < 5.00

Q: And the pIC50 (second compound 3.16 µM)?
A: < 5.00

Q: And the pIC50 (second compound 10 µM)?
A: < 5.00

Q: And the viability, T/C [1]?
A: 81.3%

Q: What about the viability, T/C [2] of the same compound?
A: 96.4%

Q: And the viability, T/C [3]?
A: 83.3%

Q: What about the viability, T/C [4] of the same compound?
A: 85.8%

Q: And the viability, T/C [5]?
A: 94.6%

Q: What about the viability, T/C [6] of the same compound?
A: 85.6%

Q: And the viability, T/C [7]?
A: 97.8%

Q: And the viability, T/C [8]?
A: 104%

Q: And the viability, T/C [9]?
A: 89.7%

Q: What about the viability, T/C [10] of the same compound?
A: 98.2%

Q: And the viability, T/C [11]?
A: 49.2%

Q: What about the viability, T/C [12] of the same compound?
A: 102%

Q: And the viability, T/C [13]?
A: 75.7%

Q: What about the viability, T/C [14] of the same compound?
A: 94.6%

Q: And the viability, T/C [15]?
A: 88.9%

Q: What about the viability, T/C [16] of the same compound?
A: 94.6%

Q: And the viability, T/C [17]?
A: 112%

Q: What about the viability, T/C [18] of the same compound?
A: 66.7%

Q: What about the viability, T/C [19] of the same compound?
A: 88.2%

Q: What about the viability, T/C [20] of the same compound?
A: 109%

Q: And the viability, T/C [21]?
A: 71.1%

Q: What about the viability, T/C [22] of the same compound?
A: 105%

Q: What about the viability, T/C [23] of the same compound?
A: 83.9%

Q: What about the viability, T/C [24] of the same compound?
A: 86.1%

Q: And the viability, T/C [25]?
A: 85.5%

Q: And the viability, T/C [26]?
A: 108%

Q: And the viability, T/C [27]?
A: 98.7%

Q: What about the viability, T/C [28] of the same compound?
A: 99.5%

Q: And the viability, T/C [29]?
A: 110%

Q: What about the viability, T/C [30] of the same compound?
A: 61.3%

Q: And the viability, T/C [31]?
A: 106%

Q: And the viability, T/C [32]?
A: 71.2%

Q: What about the viability, T/C [33] of the same compound?
A: 90.9%

Q: What about the viability, T/C [34] of the same compound?
A: 80.8%

Q: And the viability, T/C [35]?
A: 117%

Q: And the viability, T/C [36]?
A: 74.1%

Reference: PubChem BioAssay AID1963839 (Molecular Pharmacology Branch, DTP, NCI, 2024)
